From patent US20240026383A1 (priority 2020, published 2024)
“Also recorded” adds a separate entry of the source.

Columns and labels:
[1] = test system: LacZa of E. coli MG1655; experiment: FnCas12a targeting assay with Tagged-T4 td intron variants (CFU drop plating); type: cell-based; conditions: T crRNA, both induced and non-induced selective media
Source text: Four different intron variants (as shown previously in FIG. 8), referred to as “Tag1”, “Tag2”, etc. (Tag1: −4P, −5P, −6P; Tag2: −4W, […] −4W, −5W, −6P; Tag4: −4M, −5P, −6P) are inserted directly after the start codon of the GOI (FnCas12a gene). The 5′ exon sequences of the four different tags are indicated: Tag1: TCCtcaGGT (SEQ ID NO: 7); Tag2: TCCtcgGGT (SEQ ID NO: 8); Tag3: TCCttgGGT (SEQ ID NO: 9); Tag4: TCCtctGGT (SEQ ID NO: 10). The 3′ exon sequence is conserved amongst the 4 different tags and indicated as CTA (SEQ ID NO: 12). The amino acids corresponding to the Tag sequences are indicated with capital bold letters above the Tagged-introns. Intron-less (wild-type) FnCas12a was used as a reference for comparison. Efficiency of targeting of the different Tagged-T4 td intron variants was assessed by using either a LacZa targeting (T) or a non-targeting (NT) crRNA and by comparing the amount of colony forming units (CFUs) of transformed E. coli MG1655 per μg of plasmid used (CFUs μg^−1). CFU was determined by the number of colonies observed.
Electrocompetent E. coli MG1655 were transformed (2.5 kV, 200 Ω, 25 μF) with 10 ng μL^−1 of the respective plasmid and recovered for 1 hour in 500 μL LB medium [10 g L^−1 tryptone (Oxoid), 5 g L^−1 yeast extract (BD), 10 g L^−1 NaCl (Acros)] at 37° C. Then, the recovered culture was serially diluted and drop plated on selective (50 μg mL^−1 kanamycin) LB agar plates in the presence or absence of 2 mM theophylline. The agar plates were incubated at 30° C. for 24 hours and the CFUs were counted.
E. coli MG1655 was transformed with a series of plasmids (listed in Table 4) and serially diluted and drop plated on selective (kanamycin) LB media with or without 2 mM theophylline. […] The effect of the CFU reduction was more apparent for the Tag4-intron where colonies could only be observed at the 10° dilution, followed by Tag3-intron (10^−1) then Tag2-intron (10^−2) and finally Tag1-intron ([…]).

[2] = test system: LacZ gene of E. coli MG1655; experiment: SIBR-Cas genome editing (HR and CRISPR-Cas counterselection) of LacZ; type: cell-based
Source text: For efficient genome editing in bacteria, HR should precede CRISPR-Cas counterselection. To assess whether tight control over CRISPR-Cas targeting could bolster the efficiency of CRISPR-Cas mediated genome editing by allowing more time for HR to occur, we used SIBR-Cas and targeted the LacZ gene of E. coli MG1655 for knock-out through HR and CRISPR-Cas counterselection using a blue/white screening colony assay. To facilitate HR, we added 500 bp up- and down-stream homology arms to the plasmids expressing the four SIBR-Cas (Int1-4) and WT-FnCas12a variants that target the LacZ gene. After 1 hour recovery, we induced the expression of the SIBR-Cas variants to counterselect the WT from the mutant colonies.
Since disruption of LacZ can also be achieved through non-HR mediated approaches (spontaneous mutations or occasional error-prone DNA repair following DNA cleavage by Cas12a), not all gene deletions can be screened phenotypically. Therefore, we repeated our experiment, but X-gal was omitted from the medium to eliminate the possibility of false-positives. Randomly selected colonies that were obtained were screened by PCR for LacZ deletion showing a 0%, 0%, 29% and 38% editing efficiency for Int1, Int2, Int3 and Int4 SIBR-Cas variants, respectively (FIG. 24C). […] The observed decrease in editing efficiency (compared to the blue/white screening) might be attributed to spontaneous LacZ mutations that escape CRISPR-Cas counterselection. Nevertheless, a high editing efficiency (38%) was observed when SIBR-Cas Int4 was used without the use of recombinases or any other complex systems.

[3] = test system: EndA of P. putida; experiment: FnCas12a targeting assay with Tagged-T4 td intron variants in P. putida; type: cell-based, Pseudomonas putida; conditions: media with or without theophylline
Procedure: Plasmids bearing the four T4 td intron-FnCas12a or the intron-less FnCas12a and an EndA T or an NT crRNA were transformed to P. putida and the targeting efficiency was assessed by comparing the CFUs μg^−1 in the presence or absence of the theophylline inducer.
In more detail, electrocompetent P. putida cells were transformed (2.5 kV, 200 Ω, 25 μF) with 200 ng plasmid and recovered in 1 ml LB for 2 hours at 30° C. Then, the culture was serially diluted and drop plated on selective (50 μg mL^−1 kanamycin) LB agar plates in the presence or absence of 2 mM theophylline. The agar plates were incubated at 30° C. for 24 hours and the CFUs were counted.
P. putida was transformed with a series of plasmids (listed in Table 6) and serially diluted and drop plated on selective (kanamycin) LB media with or without 2 mM theophylline. […] However, for P. putida, the effect of induction was more apparent than E. coli as no CFUs could be observed for transformants bearing the T crRNA and plated on selective media with theophylline. […] Collectively, the Tagged-intron constructs work efficiently in P. putida and can be used for genome engineering.

**Q.** How did the CFUs [1] turn out when “WT-FnCas12a: Intron-less (wild-type) FnCas12a used as a reference for comparison [reference compound]” was run?
**A.** The CFUs was “complete elimination of CFUs”.

**Q.** And the colonies obtained ([2]; LacZ targeting)?
**A.** Its colonies obtained is “no colonies; also recorded: did not yield any colonies”.

**Q.** What about the “unbiased editing efficiency (LacZ deletion by PCR of randomly selected colonies)” value ([2]; X-gal omitted from the medium) of the same substance?
**A.** The value was 0%.

**Q.** What about the “editing efficiency: percentage of white colonies from total CFUs mL-1” value ([2]; blue/white screening, LacZ targeting, induced after 1 hour recovery) of the same substance?
**A.** The value was 0%.

**Q.** And the CFUs [3]?
**A.** Its CFUs is “did not have any CFUs”.
